Source: article PMC11522928 (JACS Au, 2024)

Legend:
[1] = tested on: chick embryos given CoCl2; experiment: CoCl2 ischemia / hypoxia study, embryo survival; type: in vivo, Gallus gallus domesticus; conditions: CoCl2 hexahydrate 1.2 mg, 0.54 M
chick embryos = experiment: Embryo survival after dosing on the CAM
[2] = tested on: chick chorioallantoic membrane (CAM) vasculature; experiment: Chick chorioallantoic membrane; type: in vivo, Gallus gallus domesticus; conditions: 0.75 mg/kg (18.87 µM; antibody 1 mg/mL), n = 2-3, 24 h

## O.O.O.O.O.O.[Cl-].[Cl-].[Co+2] [CoCl2, CoCl2 hexahydrate]
[1]; 32× LD50, 12 h, n = 4
  mortality of embryos treated only with CoCl2: 100%
[1]; 32× LD50, 24 h, n = 8
  mortality of embryos treated only with CoCl2: 100%

## COC(=O)N[C@@H](Cc1ccccc1)C(=O)N[C@@H](Cc1ccc(NS(=O)(=O)O)cc1)c1csc(-c2cccs2)n1 [Razuprotafib]
Chick embryos; dosed at 400 μM, n = 2
  embryo survival: 50%
Chick embryos; dosed at 40 mM on the CAM
  lethality, embryos dead / embryos tested: 7/8

B1: Ang-1: human Ang-1 protein (Gibco) (protein, UniProt Q15389 16-498, looked up)
Angiopoietin-1: HIGCSNQRRSPENSGRRYNRIQHGQCAYTFILPEHDGNCRESTTDQYNTNALQRDAPHVEPDFSSQKLQHLEHVMENYTQWLQKLENYIVENMKSEMAQIQQNAVQNHTATMLEIGTSLLSQTAEQTRKLTDVETQVLNQTSRLEIQLLENSLSTYKLEKQLLQQTNEILKIHEKNSLLEHKILEMEGKHKEELDTLKEEKENLQGLVTRQTYIIQELEKQLNRATTNNSVLQKQQLELMDTVHNLVNLCTKEGVLLKGGKREEEKPFRDCADVYQAGFNKSGIYTIYINNMPEPKKVFCNMDVNGGGWTVIQHREDGSLDFQRGWKEYKMGFGNPSGEYWLGNEFIFAITSQRQYMLRIELMDWEGNRAYSQYDRFHIGNEKQNYRLYLKGHTGTAGKQSSLILHGADFSTKDADNDNCMCKCALMLTGGWWFDACGPSNLNGMFYTAGQNHGKLNGIKWHYFKGPSYSLRSTTMMIRPLDF
[2]
  whether CAM results recapitulate those of KU04212, in words: None of these agents gave results consistent with KU04212
